Assay results reported in patent publication US12162864B2, “Condensed-cyclic compound” (Takeda Pharmaceutical Company Limited, priority 2018, dated 2024).

Legend:
human M1 receptor = molecular target: T1, human M1 receptor (Homo sapiens, UniProt P11229); test: Measurement of M1 receptor positive allosteric modulator (M1PAM) activity; assay type: cell-based; conditions: PAM activity in presence of acetylcholine at EC20 concentration; CHO-K1 cells stably expressing human M1 receptor; IP1 time-resolved fluorescence
T1 construct: expressed in transfected cells; host or cells: CHO-K1
T1 sequence (P11229 1-460): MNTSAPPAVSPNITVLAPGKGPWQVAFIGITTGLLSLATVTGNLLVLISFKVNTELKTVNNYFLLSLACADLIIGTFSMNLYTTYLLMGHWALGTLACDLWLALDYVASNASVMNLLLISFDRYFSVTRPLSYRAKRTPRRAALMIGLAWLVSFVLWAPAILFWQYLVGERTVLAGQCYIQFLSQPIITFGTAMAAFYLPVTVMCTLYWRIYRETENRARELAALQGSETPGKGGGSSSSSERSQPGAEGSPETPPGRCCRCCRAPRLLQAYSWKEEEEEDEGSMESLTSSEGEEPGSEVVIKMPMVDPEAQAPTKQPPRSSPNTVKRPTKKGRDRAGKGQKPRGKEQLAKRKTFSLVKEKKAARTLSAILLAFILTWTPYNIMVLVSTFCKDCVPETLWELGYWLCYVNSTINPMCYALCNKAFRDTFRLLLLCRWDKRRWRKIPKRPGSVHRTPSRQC
Procedure: Measurement of M1 Receptor Positive Allosteric Modulator (M1PAM) Activity
The activity of a test compound in the presence of acetylcholine at an EC20 concentration affording about 20% action of the maximum activity was measured as PAM activity. The method therefor is as follows. To a 384-well white plate (Greiner™) was added 4 μL of the test compound diluted with IP1 Stimulation buffer (CisBio™) containing 0.1% fatty acid-free BSA containing 80 nM acetylcholine. Freeze stock of CHO-K1 cells stably expressing human M1 receptor (hCHRMl) was prepared with IP1 Stimulation buffer (CisBio™) containing 0.1% fatty acid-free BSA, 4 μL thereof was added (10,000 cells/well) and the mixture was cultured in a 5% CO2 incubator at 37° C. for 1 hr. 4 μL of a solution (CisBio™) containing IP1-d2 and Anti-IP1-cryptate Tb conjugate was added the mixture was incubated at room temperature for 1 hr, and the time-resolved fluorescence signal was measured on an Envision plate reader (Perkin Elmer™). The activity (%) of the test compound was calculated by defining the value when acetylcholine was added at the final concentration of 20 μM as 100% and the value when DMSO was added instead of the test compound under acetylcholine-free conditions as 0%, and the EC50 value was calculated as a value of 50% of the concentration dependence curve of the test compound.

MDR1 = molecular target: T2, MDR1 (Homo sapiens, UniProt P08183); test: MDR1 membrane permeability test; assay type: in vitro ADME; conditions: pH 7.4, human MDR1-expressing LLC-PK1 cells, 10 μmol/L test compound, read-out: Efflux ratio (ER)
T2 construct: expressed in transfected cells
T2 sequence (P08183 whole entry): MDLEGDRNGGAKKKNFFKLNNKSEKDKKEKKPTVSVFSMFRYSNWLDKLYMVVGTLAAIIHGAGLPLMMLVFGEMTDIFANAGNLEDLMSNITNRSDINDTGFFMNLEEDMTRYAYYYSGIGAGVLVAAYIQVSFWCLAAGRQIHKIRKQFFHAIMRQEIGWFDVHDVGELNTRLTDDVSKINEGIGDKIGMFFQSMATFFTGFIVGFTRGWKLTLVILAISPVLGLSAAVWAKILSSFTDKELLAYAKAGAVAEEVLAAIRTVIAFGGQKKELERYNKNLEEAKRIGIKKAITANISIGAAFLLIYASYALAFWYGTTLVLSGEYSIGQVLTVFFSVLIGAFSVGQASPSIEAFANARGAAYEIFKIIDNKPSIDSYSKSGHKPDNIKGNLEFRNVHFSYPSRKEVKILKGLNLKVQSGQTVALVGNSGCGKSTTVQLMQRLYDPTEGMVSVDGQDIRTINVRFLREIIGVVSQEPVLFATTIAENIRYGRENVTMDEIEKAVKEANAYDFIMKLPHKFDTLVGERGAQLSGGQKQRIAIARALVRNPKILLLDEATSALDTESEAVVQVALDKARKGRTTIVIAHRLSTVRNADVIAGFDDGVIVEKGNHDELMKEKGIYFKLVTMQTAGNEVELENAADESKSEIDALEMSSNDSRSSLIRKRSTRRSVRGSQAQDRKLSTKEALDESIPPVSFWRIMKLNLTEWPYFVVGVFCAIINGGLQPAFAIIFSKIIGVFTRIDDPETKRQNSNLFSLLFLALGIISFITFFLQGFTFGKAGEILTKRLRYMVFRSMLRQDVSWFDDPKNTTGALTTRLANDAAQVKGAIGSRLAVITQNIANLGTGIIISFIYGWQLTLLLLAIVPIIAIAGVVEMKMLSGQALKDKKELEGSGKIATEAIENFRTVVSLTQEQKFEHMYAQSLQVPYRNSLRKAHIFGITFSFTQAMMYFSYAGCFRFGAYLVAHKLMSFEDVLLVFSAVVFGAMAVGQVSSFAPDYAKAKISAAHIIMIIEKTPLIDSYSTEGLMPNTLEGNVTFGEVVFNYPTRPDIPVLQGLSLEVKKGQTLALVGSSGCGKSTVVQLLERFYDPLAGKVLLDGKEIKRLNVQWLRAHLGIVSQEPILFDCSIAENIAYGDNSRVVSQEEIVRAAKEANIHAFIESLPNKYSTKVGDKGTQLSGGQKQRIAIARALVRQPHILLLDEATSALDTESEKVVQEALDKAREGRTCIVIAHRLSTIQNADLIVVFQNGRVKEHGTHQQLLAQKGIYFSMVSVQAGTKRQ
Procedure: MDR1 Membrane Permeability Test
When MDR1 is expressed in excess in LLC-PK1 cell, which is a polar cell, MDR1 is localized in apical membrane (A), thus promoting transcellular transport from the basement membrane side (B) toward direction A. When a ratio to the transcellular transport in the opposite direction is taken and a ratio to a control cell in which a mock vector has been introduced is further taken, an efflux ratio of MDR1 to simple diffusion (corrected efflux ratio) is calculated. Similarly, when a brain/plasma concentration ratio in Mdr1(−/−) mouse is divided by a brain/plasma concentration ratio in wild-type mouse, an efflux ratio of Mdr1 to simple diffusion in blood-brain barrier (BBB) (Kp, brain ratio, higher value means lower central nervous system permeability) is calculated. Adachi Y. et al. (Reference 1) has reported a positive correlation between corrected efflux ratio and Kp, brain ratio (FIG. 5(C)), and efflux ratio in MDR1 expressing cell and Kp, brain ratio (FIG. 5(B)).
To confirm the central nervous system permeability of the compounds of the present invention, a MDR1 membrane permeability test was performed by the following method.
Digoxin and lucifer yellow (LY) were purchased from Sigma-Aldrich™, Diclofenac, colchicine and alprenolol were purchased from Wako Pure Chemical Industries, Ltd., and other reagents used were commercially available products of special grade.
Human MDR1-expressing LLC-PK1 cells were cultured according to the report of Takeuchi et al. (Reference 2). Human MDR1-expressing LLC-PK1 cells were cultured in 10% fetal bovine serum (Invitrogen™), 500 μg/ml G418 (Invitrogen™), 150 ng/ml colchicine-containing M199 medium (Invitrogen™) under 5% CO2 conditions at 37° C.
Transcellular transport was performed according to the report of Sugimoto et al. (Reference 3). The cells were cultured for 3 days on HTS Transwell™ (registered trademark) 96 well permeable support (pore size 0.4 μm, 0.143 cm^2 surface area, Corning Life Sciences) having polyethylene terephthalate membrane on which the cells had been seeded at 3.45×10^4 cells/well. After preincubation in M199 medium (containing 10 mmol/L HEPES, 1% BSA, pH 7.4) for 30 min, a drug solution (10 μmol/L digoxin, 200 μmol/L LY, 10 μmol/L test compound) dissolved in M199 medium was added to the apical side or basolateral side of the Transwell™ by 75 or 250 μL each and the cells were cultured under 5% CO2 conditions at 37° C. After 1 hr, the sample was collected from the side opposite to the side where the drug solution was added, and the concentration of the test compound was measured by LC-MS/MS. As an internal standard substance, 100 ng/mL alprenolol and diclofenac were used. The analysis conditions were as follows. • LC: UFLC LC-20 (Shimadzu™) • MS/MS: API4000 (AB Sciex™ Instruments) • LC condition: gradient method
• Column: Unison UK-C18 HT (3.0 μm, 2.0×20 mm) • Column temperature: 50° C. • Flow rate: 0.7 mL/min (for 1.5 min run), 1.0 mL/min (for 1.0 min run) • Mobile phase A: 50 mM CH3COONH4:MeCN:water=1:1:8 • Mobile phase B: 50 mM CH3COONH4:MeCN=1:9 • Injection volume: 1-20 μL
LY was measured by a fluorescence plate reader (Fluoroskan Ascent FL).
Papp, A to B and Papp, B to A (apparent permeability) were calculated from the formula (1), and the efflux ratio (ER) was calculated from the formula (2).
[formula] • Amount: amount of transported digoxin/well • Area: surface area of cell monolayer (0.143 cm^2) • C0: concentration of drug solution added • Time: incubation time

Row | SMILES | EC50 (human M1 receptor) | efflux ratio at 1 h, 10 μmol/L (MDR1)
1 | Cn1cnc(-c2ccc(Cc3cc(C(=O)N[C@H]4CCOC[C@@H]4O)c(F)c4c3OCC4)cc2)c1 [Example 5, 1,5-anhydro-2,3-dideoxy-3-(((4-fluoro-7-(4-(1-methyl-1H-imidazol-4-yl)benzyl)-2,3-dihydro-1-benzofuran-5-yl)carbonyl)amino)-L-threo-pentitol] | 3.7 nM | 7.3
2 | Cn1cc(-c2ccc(Cc3cc(C(=O)N[C@H]4CCOC[C@@H]4O)c(F)c4c3OCC4)cn2)cn1 [Example 6, 1,5-anhydro-2,3-dideoxy-3-(((4-fluoro-7-((6-(1-methyl-1H-pyrazol-4-yl)pyridin-3-yl)methyl)-2,3-dihydro-1-benzofuran-5-yl)carbonyl)amino)-L-threo-pentitol] | 2 nM | 18
3 | COCCNC(=O)c1ccc(Cc2cc(C(=O)N[C@H]3CCOC[C@@H]3O)c(F)c3c2OCC3)cc1F [Example 13, 1,5-anhydro-2,3-dideoxy-3-(((4-fluoro-7-(3-fluoro-4-((2-methoxyethyl)carbamoyl)benzyl)-2,3-dihydro-1-benzofuran-5-yl)carbonyl)amino)-L-threo-pentitol] | 4.2 nM | 10
4 | CCOCCNC(=O)c1ccc(Cc2cc(C(=O)N[C@H]3CCOC[C@@H]3O)c(F)c3c2OCC3)cc1F [Example 14, 1,5-anhydro-2,3-dideoxy-3-(((7-(4-((2-ethoxyethyl)carbamoyl)-3-fluorobenzyl)-4-fluoro-2,3-dihydro-1-benzofuran-5-yl)carbonyl)amino)-L-threo-pentitol] | 20 nM | 9.3
5 | CNC(=O)c1ccc(Cc2cc(C(=O)N[C@H]3CCOC[C@@H]3O)c(OC)c3c2OCC3)cc1F [Example 31, 1,5-anhydro-2,3-dideoxy-3-(((7-(3-fluoro-4-(methylcarbamoyl)benzyl)-4-methoxy-2,3-dihydro-1-benzofuran-5-yl)carbonyl)amino)-L-threo-pentitol] | 18 nM | 28
6 | COCCCNC(=O)c1ccc(Cc2cc(C(=O)N[C@H]3CCOC[C@@H]3O)c(OC)c3c2CCC3)cc1F [Example 60, 1,5-anhydro-2,3-dideoxy-3-(((7-(3-fluoro-4-((3-methoxypropyl)carbamoyl)benzyl)-4-methoxy-2,3-dihydro-1H-inden-5-yl)carbonyl)amino)-L-threo-pentitol] | 17 nM | 15
